The values below are quoted from earlier work in patent publication US20210368801A1, “COMPOSITION FOR PREPARING HYPOCHLOROUS ACID WATER, AND TEST PAPER FOR DETERMINING HYPOCHLOROUS ACID WATER” (Wabian Co., Ltd., priority 2020, published 2021).

For orientation: LD50 means the dose expected to kill half of the subjects tested.

One data set deals with coronavirus. The following applies: as an effective chlorine amount, according to NITE.
The conditions of data set [1]: electrolytic type; http://www.jsia.gr.jp/data/naclo.pdf.

Molecules are shown by their SMILES.

In the case of `OCl` [hypochlorous acid], the “effective concentration for the coronavirus” value in the data set with coronavirus is reported as 35 ppm.
Regarding `OCl` [sodium hypochlorite], in data set [1], the LD50 was 1000 mg/kg.
